Where a name gives a salt, the structure may show the parent alone. Read-outs that look alike come from different tables or passages of the source. One block for each molecule: values may come before it.
What was measured:
[1] = molecular target: T1, baculovirus-expressed ALK (Homo sapiens, UniProt Q9UM73); assay: ALK Kinase Assay (ELISA-type, time-resolved fluorescence); type: biochemical
T1 construct: host or cells: baculovirus expression system
Summary of the method: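 Plates coated with phospholipase C-γ substrate (10 μg/mL in TBS); reaction started with 30 ng/ml ALK and run 15 min at 37° C. Phosphorylated substrate detected with Eu-N1-labeled PT66 antibody. IC50 from sigmoidal variable-slope fit of percent inhibition vs log concentration.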

[2] = molecular target: T2, c-Met (cytoplasmic domain) (Homo sapiens, UniProt P08581); assay: c-Met Kinase Assay (same methods as for ALK, with modifications); type: biochemical
T2 construct: 10 ng/mL c-Met (cytoplasmic domain, Invitrogen Corporation #PV3143); purchased Invitrogen Corporation PV3143
Summary of the method: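 Europium-labeled PT66 antibody (Eu-N1) detects substrate phosphorylation on wells coated with phospholipase C-γ at 10 μg/mL. The kinase, the cytoplasmic domain of c-Met at 10 ng/mL, starts the reaction, which proceeds 15 minutes at 37° C.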

[3] = 1 μM ATP (Km level), 30 ng/ml ALK, 37° C., 15 minutes, read-out: ALK Activity (ALK kinase inhibition, IC50 class)
[4] = 1 μM ATP (Km level), 10 ng/mL c-Met, read-out: cMet Activity (c-Met kinase inhibition, IC50 class)
[5] = ALK kinase inhibition, 1 μM ATP (Km level), read-out: ALK Activity
[6] = c-Met kinase inhibition, 1 μM ATP (Km level), read-out: cMet Activity
[7] = 1 μM ATP (Km level), read-out: ALK Activity (ALK Kinase Inhibition, IC50)
[8] = 1 μM ATP (Km level), read-out: cMet Activity (c-Met Kinase Inhibition, IC50)
[9] = ALK kinase inhibition, 1 μM ATP, read-out: ALK Activity
[10] = c-Met kinase inhibition, 1 μM ATP, read-out: cMet Activity

T1 sequence (Q9UM73 19-1620): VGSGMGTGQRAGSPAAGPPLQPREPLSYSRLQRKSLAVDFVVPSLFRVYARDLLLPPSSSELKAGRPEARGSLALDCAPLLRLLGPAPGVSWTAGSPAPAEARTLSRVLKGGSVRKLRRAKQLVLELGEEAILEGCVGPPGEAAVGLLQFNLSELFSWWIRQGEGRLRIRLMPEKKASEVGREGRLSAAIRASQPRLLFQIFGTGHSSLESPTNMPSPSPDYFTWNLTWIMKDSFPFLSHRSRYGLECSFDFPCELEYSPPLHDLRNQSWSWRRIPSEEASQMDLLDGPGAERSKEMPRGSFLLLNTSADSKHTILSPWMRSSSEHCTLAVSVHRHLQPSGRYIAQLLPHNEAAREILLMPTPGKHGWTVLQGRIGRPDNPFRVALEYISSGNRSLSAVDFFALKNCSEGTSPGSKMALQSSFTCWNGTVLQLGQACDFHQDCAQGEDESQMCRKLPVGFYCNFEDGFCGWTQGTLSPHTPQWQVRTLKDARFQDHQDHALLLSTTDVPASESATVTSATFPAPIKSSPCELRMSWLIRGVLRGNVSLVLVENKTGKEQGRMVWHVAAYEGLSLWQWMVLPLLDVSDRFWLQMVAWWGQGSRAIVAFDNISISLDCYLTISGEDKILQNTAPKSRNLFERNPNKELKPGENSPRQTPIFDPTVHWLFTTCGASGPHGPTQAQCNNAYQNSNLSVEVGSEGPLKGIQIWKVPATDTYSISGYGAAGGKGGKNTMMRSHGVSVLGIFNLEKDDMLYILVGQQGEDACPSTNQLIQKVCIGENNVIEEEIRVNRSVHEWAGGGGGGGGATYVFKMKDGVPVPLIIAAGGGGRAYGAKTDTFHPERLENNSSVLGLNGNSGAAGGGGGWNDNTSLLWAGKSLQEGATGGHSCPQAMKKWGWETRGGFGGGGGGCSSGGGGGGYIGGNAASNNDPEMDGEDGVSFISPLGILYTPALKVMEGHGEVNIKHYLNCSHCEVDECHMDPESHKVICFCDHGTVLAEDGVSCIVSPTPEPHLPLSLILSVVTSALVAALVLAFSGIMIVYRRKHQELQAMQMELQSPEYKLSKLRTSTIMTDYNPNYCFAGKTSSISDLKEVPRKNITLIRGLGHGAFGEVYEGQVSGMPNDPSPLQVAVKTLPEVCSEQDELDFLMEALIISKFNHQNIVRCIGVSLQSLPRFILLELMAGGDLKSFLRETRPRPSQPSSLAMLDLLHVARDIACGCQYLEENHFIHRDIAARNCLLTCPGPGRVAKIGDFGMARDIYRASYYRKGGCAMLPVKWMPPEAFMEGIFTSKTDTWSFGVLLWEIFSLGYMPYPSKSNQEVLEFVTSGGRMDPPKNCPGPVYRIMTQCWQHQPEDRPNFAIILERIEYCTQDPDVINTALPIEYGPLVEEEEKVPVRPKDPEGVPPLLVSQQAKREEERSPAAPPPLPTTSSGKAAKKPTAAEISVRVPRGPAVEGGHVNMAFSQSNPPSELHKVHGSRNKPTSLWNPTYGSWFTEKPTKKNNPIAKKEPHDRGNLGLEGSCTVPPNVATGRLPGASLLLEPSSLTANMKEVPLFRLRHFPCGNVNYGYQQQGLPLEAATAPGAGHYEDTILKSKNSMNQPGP
T2 sequence (P08581 956-1390 limits assumed): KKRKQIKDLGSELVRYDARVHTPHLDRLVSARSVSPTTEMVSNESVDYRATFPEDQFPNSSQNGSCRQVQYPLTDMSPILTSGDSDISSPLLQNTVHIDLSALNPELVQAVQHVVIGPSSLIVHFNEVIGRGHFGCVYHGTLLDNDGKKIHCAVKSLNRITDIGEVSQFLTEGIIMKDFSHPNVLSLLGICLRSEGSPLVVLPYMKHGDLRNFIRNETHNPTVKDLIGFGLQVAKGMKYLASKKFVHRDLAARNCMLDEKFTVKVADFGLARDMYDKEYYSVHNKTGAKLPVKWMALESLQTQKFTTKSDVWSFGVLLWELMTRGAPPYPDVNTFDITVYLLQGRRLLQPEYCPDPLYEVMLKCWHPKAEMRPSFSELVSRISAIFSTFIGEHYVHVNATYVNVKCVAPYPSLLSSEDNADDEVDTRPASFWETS

Structure (SMILES): COCCOc1ccc(Nc2nc(Nc3cc4c(cc3OC)CCN(CC(=O)N(C)C)CC4)ncc2Cl)c(S(=O)(=O)C(C)C)c1 [Example 1189, 2-(7-{5-Chloro-4-[4-(2-methoxy-ethoxy)-2-(propane-2-sulfonyl)-phenylamino]-pyrimidin-2-ylamino}-8-methoxy-1,2,4,5-tetrahydro-benzo[d]azepin-3-yl)-N,N-dimethyl-acetamide]
IC50 [1, 3]: < 100 nM | IC50 [2, 4]: > 10000 nM

Structure (SMILES): COc1c(Nc2ncc(Cl)c(NC3C4C=CC(C4)C3C(N)=O)n2)ccc2c1CCCC(=O)N2C (stereo not drawn) [Example 115, (2-exo, 3-exo)-3-[5-Chloro-2-(6-methoxy-1-methyl-2-oxo-2,3,4,5-tetrahydro-1H-benzo[b]azepin-7-ylamino)-pyrimidin-4-ylamino]-bicyclo[2.2.1]hept-5-ene-2-carboxylic acid amide]
IC50 [1, 5]: < 100 nM | IC50 [2, 6]: > 10000 nM

Structure (SMILES): CC1(C)CCCOc2c(Nc3ncc(Cl)c(Nc4ccccc4OCC#N)n3)cccc21 [Example 880, {2-[5-Chloro-2-(5,5-dimethyl-2,3,4,5-tetrahydro-benzo[b]oxepin-9-ylamino)-pyrimidin-4-ylamino]-phenoxy}-acetonitrile]
IC50 [1, 7]: 1000 to 10000 nM | IC50 [2, 8]: > 10000 nM

Structure (SMILES): CCN1CCN(CC(=O)OCCOC)C(=O)c2ccc(Nc3ncc(Cl)c(Nc4c(F)cccc4C(=O)NC)n3)cc21 [Example 1458, {8-[5-Chloro-4-(2-fluoro-6-methylcarbamoyl-phenylamino)-pyrimidin-2-ylamino]-1-ethyl-5-oxo-1,2,3,5-tetrahydro-benzo[e][1,4]diazepin-4-yl}-acetic acid 2-methoxy-ethyl ester]
IC50 [1, 9]: 100 to 1000 nM | IC50 [2, 10]: < 100 nM

Structure (SMILES): CC1(C)CCC(=O)Nc2ccc(Nc3ncc(Cl)c(Nc4ccccc4-c4cc(=O)[nH]c(=O)[nH]4)n3)cc21 [Example 988, 6-{2-[5-Chloro-2-(5,5-dimethyl-2-oxo-2,3,4,5-tetrahydro-1H-benzo[b]azepin-7-ylamino)-pyrimidin-4-ylamino]-phenyl}-1H-pyrimidine-2,4-dione]
IC50 [1, 7]: 1000 to 10000 nM | IC50 [2, 8]: > 10000 nM

Structure (SMILES): CCN1CCc2ccc(OC)c(Nc3ncc(Cl)c(Nc4ccc(N5CCOCC5)cc4OC)n3)c2CC1=O [Example 1133, 9-[5-Chloro-4-(2-methoxy-4-morpholin-4-yl-phenylamino)-pyrimidin-2-ylamino]-3-ethyl-8-methoxy-1,3,4,5-tetrahydro-benzo[d]azepin-2-one]
IC50 [1, 3]: 1000 to 10000 nM | IC50 [2, 4]: > 10000 nM

Structure (SMILES): CC(C)NC(=O)c1ccccc1Nc1nc(Nc2ccc3c(c2)C(C)(C)CCC(=O)N3)ncc1Cl [Example 340]
IC50 [1, 5]: < 100 nM | IC50 [2, 6]: 100 to 1000 nM

Structure (SMILES): COc1cc2c(cc1Nc1ncc(Cl)c(Nc3ccc(N(C)C)cc3OC)n1)CCN(CCN1CCOCC1)CC2 [Example 1537, 5-Chloro-N(4)-(4-dimethylamino-2-methoxy-phenyl)-N(2)-[8-methoxy-3-(2-morpholin-4-yl-ethyl)-2,3,4,5-tetrahydro-1H-3-benzazepin-7-yl]-pyrimidine-2,4-diamine]
IC50 [1, 9]: < 100 nM | IC50 [2, 10]: > 10000 nM

Structure (SMILES): CNC(=O)c1ccccc1Nc1nc(Nc2ccc3c(c2Cl)C2CCC(C3)N2C(C)C)ncc1Cl (stereo not drawn) [Example 86, 2-[5-Chloro-2-(3-chloro-12-isopropyl-12-aza-tricyclo[7.2.1.0*2,7*]dodeca-2(7),3,5-trien-4-ylamino)-pyrimidin-4-ylamino]-N-methyl-benzamide]
IC50 [1, 5]: < 100 nM | IC50 [2, 6]: 100 to 1000 nM

Structure (SMILES): Cc1ccc(-c2ccccc2Nc2nc(Nc3ccc4c(c3)C(C)(C)CCC(=O)N4)ncc2Cl)nc1 [Example 1003, 7-{5-Chloro-4-[2-(5-methyl-pyridin-2-yl)-phenylamino]-pyrimidin-2-ylamino}-5,5-dimethyl-1,3,4,5-tetrahydro-benzo[b]azepin-2-one]
IC50 [1, 7]: 1000 to 10000 nM | IC50 [2, 8]: > 10000 nM

Structure (SMILES): CS(=O)(=O)Nc1ccccc1Nc1nc(Nc2ccc3c(c2)C2CCC3CN(C(=O)C(F)(F)F)C2)ncc1Cl (stereo not drawn) [Example 291, N-(2-{5-Chloro-2-[10-(2,2,2-trifluoro-acetyl)-10-aza-tricyclo[6.3.2.0*2,7*]trideca-2,4,6-trien-4-ylamino]-pyrimidin-4-ylamino}-phenyl)-methanesulfonamide]
IC50 [1, 5]: < 100 nM | IC50 [2, 6]: 1000 to 10000 nM

Structure (SMILES): COc1cc(N2CCOCC2)ccc1Nc1nc(Nc2cccc3c2OCCCC3)ncc1Cl [Example 862, 5-Chloro-N*4*-(2-methoxy-4-morpholin-4-yl-phenyl)-N*2*-(2,3,4,5-tetrahydrobenzo[b]oxepin-9-yl)pyrimidine-2,4-diamine]
IC50 [1, 7]: < 100 nM | IC50 [2, 8]: > 10000 nM

Structure (SMILES): COCCN1CCc2cc(Nc3ncc(Cl)c(NC4(C(=O)NCC#N)CC4)n3)c(OC)cc2CC1 [Example 1197, 1-{5-Chloro-2-[8-methoxy-3-(2-methoxy-ethyl)-2,3,4,5-tetrahydro-1H-benzo[d]azepin-7-ylamino]-pyrimidin-4-ylamino}-cyclopropanecarboxylic acid cyanomethyl-amide]
IC50 [1, 3]: 1000 to 10000 nM | IC50 [2, 4]: > 10000 nM

The remaining lines, values ahead:

IC50 [1, 5]: < 100 nM | IC50 [2, 6]: 1000 to 10000 nM
Structure (SMILES): CN1CCNCc2ccc(Nc3ncc(Cl)c(Nc4ccccc4NS(C)(=O)=O)n3)cc21 [Example 471, N-{2-[5-Chloro-2-(1-methyl-2,3,4,5-tetrahydro-1H-benzo[e][1,4]diazepin-8-ylamino)-pyrimidin-4-ylamino]-phenyl}-methanesulfonamide hydrochloride]

IC50 [1, 5]: < 100 nM | IC50 [2, 6]: 100 to 1000 nM
Structure (SMILES): COCCN1CCc2ccc(Nc3ncc(Cl)c(Nc4ccccc4-c4ncc[nH]4)n3)cc2CC1 [Example 221, 5-Chloro-N*4*-[2-(1H-imidazol-2-yl)-phenyl]-N*2*-[3-(2-methoxy-ethyl)-2,3,4,5-tetrahydro-1H-benzo[d]azepin-7-yl]-pyrimidine-2,4-diamine]

IC50 [1, 7]: < 100 nM | IC50 [2, 8]: 1000 to 10000 nM
Structure (SMILES): COc1ccc(Nc2nc(Nc3ccc4c(c3)CCC(O)CC4)ncc2Cl)c(-n2cccn2)c1 (stereo not drawn) [Example 623, 2-[5-Chloro-4-(4-methoxy-2-pyrazol-1-yl-phenylamino)-pyrimidin-2-ylamino]-6,7,8,9-tetrahydro-5H-benzocyclohepten-7-ol]

IC50 [1, 3]: < 100 nM | IC50 [2, 4]: 100 to 1000 nM
Structure (SMILES): CN1C(=O)CCC(C)(C)c2cc(Nc3ncc(Cl)c(Nc4ccccc4S(C)(=O)=O)n3)ccc21 [Example 1250, 7-[5-Chloro-4-(2-methanesulfonyl-phenylamino)-pyrimidin-2-ylamino]-1,5,5-trimethyl-1,3,4,5-tetrahydro-1-benzazepin-2-one]

IC50 [1, 3]: 100 to 1000 nM | IC50 [2, 4]: 1000 to 10000 nM
Structure (SMILES): Cc1cccnc1-c1ccccc1Nc1nc(Nc2ccc3c(c2)CCC(O)CC3)ncc1Cl (stereo not drawn) [Example 1021, 2-{5-Chloro-4-[2-(3-methyl-pyridin-2-yl)-phenylamino]-pyrimidin-2-ylamino}-6,7,8,9-tetrahydro-5H-benzocyclohepten-7-ol]

IC50 [1, 7]: < 100 nM | IC50 [2, 8]: < 100 nM
Structure (SMILES): CNC(=O)c1ccccc1Nc1nc(Nc2ccc3c(c2)OCCNC3=O)ncc1Cl [Example 512, 2-[5-Chloro-2-(5-oxo-2,3,4,5-tetrahydro-benzo[f][1,4]oxazepin-8-ylamino)-pyrimidin-4-ylamino]-N-methyl-benzamide]

IC50 [1, 7]: 100 to 1000 nM | IC50 [2, 8]: 1000 to 10000 nM
Structure (SMILES): CS(=O)(=O)Nc1ccccc1Nc1nc(Nc2ccc3c(c2)CNCCS3(=O)=O)ncc1Cl [Example 523, N-{2-[5-Chloro-2(5,5dioxo-6,7,8,9-tetrahydro-5H-5lambda*6*-thia-8-aza-benzocyclohepten-2-ylamino)-pyrimidin-4-ylamino]-phenyl}-methanesulfonamide]

IC50 [1, 3]: < 100 nM | IC50 [2, 4]: < 100 nM
Structure (SMILES): CNC(=O)c1cc(Br)cc(F)c1Nc1nc(Nc2ccc3c(c2)CCN(CCOC)CC3)ncc1Cl [Example 1415, 5-Bromo-2-{5-chloro-2-[3-(2-methoxy-ethyl)-2,3,4,5-tetrahydro-1H-benzo[d]azepin-7-ylamino]-pyrimidin-4-ylamino}-3-fluoro-N-methyl-benzamide]

IC50 [1, 7]: < 100 nM | IC50 [2, 8]: > 10000 nM
Structure (SMILES): CNC(=O)c1ccccc1Nc1nc(Nc2cc3c(cc2OC)CCN(CC(C)(F)F)CC3)ncc1Cl [Example 786, 2-{5-Chloro-2-[3-(2,2-difluoro-propyl)-8-methoxy-2,3,4,5-tetrahydro-1H-benzo[d]azepin-7-ylamino]-pyrimidin-4-ylamino}-N-methyl-benzamide]

IC50 [1, 9]: < 100 nM | IC50 [2, 10]: 1000 to 10000 nM
Structure (SMILES): COc1cc2c(cc1Nc1ncc(Cl)c(Nc3ccccc3S(=O)(=O)N3CCC(O)C3)n1)CCN(CC(C)O)CC2 (stereo not drawn) [Example 1552, 1-(2-{5-Chloro-2-[3-(2-hydroxy-propyl)-8-methoxy-2,3,4,5-tetrahydro-1H-3-benzazepin-7-ylamino]-pyrimidin-4-ylamino}-benzenesulfonyl)-pyrrolidin-3-ol]

IC50 [1, 3]: < 100 nM | IC50 [2, 4]: 1000 to 10000 nM
Structure (SMILES): COc1cc2c(cc1Nc1ncc(Cl)c(Nc3ccccc3S(=O)(=O)C(C)C)n1)CCC(NCC(F)F)CC2 (stereo not drawn) [Example 1056, 5-Chloro-N*2*-[7-(2,2-difluoro-ethylamino)-3-methoxy-6,7,8,9-tetrahydro-5H-benzocyclohepten-2-yl]-N*4*-[2-(propane-2-sulfonyl)-phenyl]-pyrimidine-2,4-diamine]

From patent US8148391B2 (Cephalon, Inc., priority 2006, dated 2012)
